Ten molecules from ChEMBL document CHEMBL4028867, “Design, Synthesis, and Characterization of N-Oxide-Containing Heterocycles with in Vivo Sterilizing Antitubercular Activity” (J Med Chem, 2017) can be followed below.

Values after ≈ are worked out from the molar mass of the structure shown.

What all share (assay type): functional
Experiment [1] concerns Mycobacterium tuberculosis. Description: Antitubercular activity against rifampicin resistant Mycobacterium tuberculosis H37Rv ATCC 35838 after 24 hrs by MABA method. The conditions noted are these: H37Rv ATCC 35838, 24 h.
Experiment [2] deals with Mycobacterium tuberculosis. Description: Antitubercular activity against isoniazid resistant Mycobacterium tuberculosis H37Rv ATCC 35822 after 24 hrs by MABA method. As to conditions: H37Rv ATCC 35822, 24 h.
Experiment [3] has as its system Mycobacterium tuberculosis. Description: Antitubercular activity against moxifloxacin resistant Mycobacterium tuberculosis H37Rv after 24 hrs by MABA method.
The subject of experiment [4] is Mycobacterium tuberculosis. Description: Antitubercular activity against bedaquiline resistant Mycobacterium tuberculosis H37Rv after 24 hrs by MABA method.
The subject of experiment [5] is Mycobacterium tuberculosis. Description: Antitubercular activity against streptomycin resistant Mycobacterium tuberculosis H37Rv ATCC 35820 after 24 hrs by MABA method. The conditions noted are these: H37Rv ATCC 35820, 24 h.
Experiment [6] deals with Mycobacterium tuberculosis. Briefly: Antitubercular activity against capreomycin resistant Mycobacterium tuberculosis H37Rv after 24 hrs by MABA method.

With `O=C(N/N=C/c1ccc2no[n+]([O-])c2c1)c1ccncc1`, the MIC90 came to 3.78 µM (≈ 1.07 µg/mL) in experiment [1]; 8.59 µM (≈ 2.43 µg/mL) in experiment [2]; 5.72 µM (≈ 1.62 µg/mL) in experiment [3]; 1.2 µM (≈ 0.34 µg/mL) in experiment [4]; 17 µM (≈ 4.81 µg/mL) in experiment [5].
Turning to `NC(=O)c1c(COc2ccc(/C=N/NC(=O)c3ccncc3)cc2)no[n+]1[O-]`, the MIC90 is 1.99 µM (≈ 0.761 µg/mL) in experiment [1]; more than 262 µM in experiment [6]; more than 262 µM in experiment [2]; 0.66 µM (≈ 0.252 µg/mL) in experiment [3]; 6.38 µM (≈ 2.44 µg/mL) in experiment [4]; more than 262 µM in experiment [5].
Consider `C[C@@H]1NC(=O)[C@@H](N)CNC(=O)[C@H]([C@H]2CCNC(=N)N2)NC(=O)/C(=C/NC(N)=O)NC(=O)[C@H](CNC(=O)C[C@@H](N)CCCN)NC1=O`, for which the figures for the MIC90 in experiment [6] and in experiment [5] were 60.5 µM (≈ 39.5 µg/mL) and 1.72 µM (≈ 1.12 µg/mL), respectively.
Regarding `NC(=O)c1c(COc2ccccc2/C=N/NC(=O)c2ccncc2)no[n+]1[O-]`, the MIC90 in experiment [1] is 0.44 µM (≈ 0.168 µg/mL); in experiment [6], more than 262 µM; in experiment [2] it was more than 262 µM; in experiment [3], 0.81 µM (≈ 0.31 µg/mL); in experiment [4] it was 0.81 µM (≈ 0.31 µg/mL); in experiment [5], 27.4 µM (≈ 10.5 µg/mL).
`NC(=O)c1c(COc2cccc(/C=N/NC(=O)c3ccncc3)c2)no[n+]1[O-]`: the MIC90 is 2.31 µM (≈ 0.883 µg/mL) in experiment [1]; more than 262 µM in experiment [6]; more than 262 µM in experiment [2]; 1.22 µM (≈ 0.466 µg/mL) in experiment [3]; 2.56 µM (≈ 0.979 µg/mL) in experiment [4]; more than 262 µM in experiment [5].
Regarding `COc1nc2ccc(Br)cc2cc1[C@@H](c1ccccc1)[C@@](O)(CCN(C)C)c1cccc2ccccc12` [BEDAQUILINE], the MIC90 in experiment [1] was determined as 0.01 µM (≈ 0.00556 µg/mL); in experiment [6], 0.06 µM (≈ 0.0333 µg/mL); in experiment [2], 0.01 µM (≈ 0.00556 µg/mL); in experiment [3] it was 0.06 µM (≈ 0.0333 µg/mL); in experiment [4], 1.7 µM (≈ 0.944 µg/mL); in experiment [5] it was 0.06 µM (≈ 0.0333 µg/mL).
As for `NNC(=O)c1ccncc1` [ISONIAZID], the MIC90 in experiment [1] was 0.35 µM (≈ 0.048 µg/mL); in experiment [6], more than 5 µM; in experiment [2], more than 5 µM; in experiment [3], 0.28 µM (≈ 0.0384 µg/mL); in experiment [4] it was 0.23 µM (≈ 0.0315 µg/mL); in experiment [5], more than 5 µM.
As to `COc1c(N2C[C@@H]3CCCN[C@@H]3C2)c(F)cc2c(=O)c(C(=O)O)cn(C3CC3)c12` [MOXIFLOXACIN], the MIC90 is 0.12 µM (≈ 0.0482 µg/mL) in experiment [1]; 0.35 µM (≈ 0.141 µg/mL) in experiment [6]; 0.23 µM (≈ 0.0923 µg/mL) in experiment [2]; more than 8 µM in experiment [3]; 0.26 µM (≈ 0.104 µg/mL) in experiment [4]; 0.36 µM (≈ 0.145 µg/mL) in experiment [5].
For `CO[C@H]1/C=C/O[C@@]2(C)Oc3c(C)c(O)c4c(O)c(c(/C=N/N5CCN(C)CC5)c(O)c4c3C2=O)NC(=O)/C(C)=C\C=C\[C@H](C)[C@H](O)[C@@H](C)[C@@H](O)[C@@H](C)[C@H](OC(C)=O)[C@@H]1C` [RIFAMPIN], the MIC90 was more than 1 µM in experiment [1]; 0.21 µM (≈ 0.173 µg/mL) in experiment [6]; 0.01 µM (≈ 0.00823 µg/mL) in experiment [2]; 0.04 µM (≈ 0.0329 µg/mL) in experiment [4]; 0.03 µM (≈ 0.0247 µg/mL) in experiment [5].
`CN[C@@H]1[C@H](O[C@H]2[C@H](O[C@H]3[C@H](O)[C@@H](O)[C@H](N=C(N)N)[C@@H](O)[C@@H]3N=C(N)N)O[C@@H](C)[C@]2(O)C=O)O[C@@H](CO)[C@H](O)[C@H]1O` [STREPTOMYCIN]: the MIC90 in experiment [6] was 2.55 µM (≈ 1.48 µg/mL); in experiment [5], more than 100 µM.
